The text below walks through data of PMC8196973, “Synthesis, Molecular Docking Analysis and Biological Evaluations of Saccharide-Modified Thiadiazole Sulfonamide Derivatives” (International Journal of Molecular Sciences, 2021).

Assay [1] has as its target hCA IX (Homo sapiens, UniProt Q16790). Briefly: hCA IX enzyme inhibition assay (4-NPA hydrolysis).
Protocol: (§2) Carbonic anhydrase can catalyze the hydrolysis of 4-nitrophenyl acetate (4-NPA). […] The experimental buffer consisted of 15 mmol/L 4-(2-hydroxyethyl)-1-piperazineethanesulfonic acid (HEPES) (pH = 7.40), 0.01% tetraethylene glycol monododecyl ether (Brij), and 100 mmol/L NaCl. […] Then, 18 μL of enzyme solution was transferred into 384-well plates in duplicate. Stock solutions of the inhibitors (10.0 mmol/L) were prepared using DMSO as solvent, and then diluted 1:3 with DMSO. […] Then 2.00 μL of each inhibitor was added to each well. All compounds were allowed to incubate with the enzyme for 15 min at 25 °C to form the Enzyme-Inhibitor (E-I) complex. After that, substrate 4-NPA (1.00 mmol/L, 20.00 μL, Sigma-Aldrich, St. Louis, MI, USA) was added into the E-I complex solution and incubated for 60, 90, 90 min at 25 °C, respectively.
In assay [2] the target is hCA II (Homo sapiens, UniProt P00918). In words: hCA II enzyme inhibition assay (4-NPA hydrolysis).
Protocol: as §2
For assay [3], the target named is hCA XII (Homo sapiens, UniProt O43570). In words: hCA XII enzyme inhibition assay (4-NPA hydrolysis).
Protocol: as §2
Assay [4] concerns human colon cancer HT-29 cells. Briefly: CCK-8 cell viability assay, HT-29. Format: cell-based. The following applies: Homo sapiens, HT-29; Table S2. The protocol:
(§1) The MDA-MB-231, HT-29 and MG-63 cell lines were provided by KeyGEN BioTECH Ltd (Nanjing, Jiangsu, China). The cells were digested and counted to prepare a cell suspension of 5.0 × 10^4 cells/mL, and then 100 μL of cell suspension was added to each well of the 96-well cell culture plate. The plates were placed in a 37 °C, 5% CO2 incubator (Corning Incorporated, Corning, New York, USA) for 24 h. The drug was diluted with the culture medium to the required concentration, ed100 μL of the corresponding drug-containing medium was added to each well, and a negative control group was set up at the same time. The 96-well cell culture plates were placed into a normoxic incubator (37 °C, 5% CO2) and hypoxic incubator (37 °C, 5% CO2, 0.5% O2, 94.5% N2) for 48 h. Finally, the 96-well plate was stained with CCK-8 and the OD value determined (λ = 450 nm).
On the technique in general: Formazan colour is commonly taken as a measure of viable cells.

Assay [5] relates to breast adenocarcinoma MDA-MB-231 cells. In words: CCK-8 cell viability assay, MDA-MB-231. The assay is classed as cell-based, human. To be noted: Homo sapiens, MDA-MB-231; Table S2. The procedure:
as §1

In brackets after ≈: the same amount, converted by molar mass.

Sequence of hCA XII (O43570 25-354): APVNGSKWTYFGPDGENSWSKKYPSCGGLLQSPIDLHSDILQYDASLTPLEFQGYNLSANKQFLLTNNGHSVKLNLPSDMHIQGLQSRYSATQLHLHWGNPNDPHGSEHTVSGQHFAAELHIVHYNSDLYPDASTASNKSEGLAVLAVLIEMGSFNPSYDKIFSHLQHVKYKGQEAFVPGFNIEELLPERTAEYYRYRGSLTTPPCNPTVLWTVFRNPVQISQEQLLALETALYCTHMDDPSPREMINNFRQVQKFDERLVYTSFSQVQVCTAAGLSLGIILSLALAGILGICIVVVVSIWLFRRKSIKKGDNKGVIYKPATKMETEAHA

As a reminder, the IC50 is the point on the concentration scale where inhibition reaches its midpoint. A high value points to weaker potency in that assay. As to `Nc1ccc(C(=O)Nc2nnc(S(N)(=O)=O)s2)cc1` [Compound 12a, 4-Amino-N-(5-sulfamoyl-1,3,4-thiadiazol-2-yl)benzamide], the IC50 in assay [1] is 44.6 ± 8.3 nM.

As for `Nc1cccc(C(=O)Nc2nnc(S(N)(=O)=O)s2)c1` [Compound 12b, 3-Amino-N-(5-sulfamoyl-1,3,4-thiadiazol-2-yl)benzamide], the IC50 in assay [2] was found to be 79.1 ± 5.4 nM; in assay [1] it was 63.8 ± 6.3 nM.

Turning to `Nc1ccc(C(=O)Nc2nnc(S(N)(=O)=O)s2)cc1F` [Compound 12c, 4-Amino-3-fluoro-N-(5-sulfamoyl-1,3,4-thiadiazol-2-yl)benzamide], the IC50 in assay [2] came out at 242 ± 9.4 nM; in assay [1] it was 41.3 ± 6.2 nM.

Take `Nc1ccc(C(=O)Nc2nnc(S(N)(=O)=O)s2)cc1Cl` [Compound 12d, 4-Amino-3-chloro-N-(5-sulfamoyl-1,3,4-thiadiazol-2-yl)benzamide]: the IC50 is 401 ± 12.3 nM in assay [2] and 36.5 ± 7.6 nM in assay [1].

On to `Nc1ccc(C(=O)Nc2nnc(S(N)(=O)=O)s2)cc1Br` [Compound 12e, 4-Amino-3-bromo-N-(5-sulfamoyl-1,3,4-thiadiazol-2-yl)benzamide], for which the IC50 in assay [2] came out at 543 ± 10.3 nM; in assay [1] it was 65.9 ± 8.3 nM.

As to `Nc1ccc(C(=O)Nc2nnc(S(N)(=O)=O)s2)cc1[N+](=O)[O-]` [Compound 12f, 4-Amino-3-nitro-N-(5-sulfamoyl-1,3,4-thiadiazol-2-yl)benzamide], the IC50 in assay [2] was found to be 701 ± 13.2 nM; in assay [1], 55.1 ± 11.5 nM. The “selectivity: inhibitory activity for hCA IX higher than that for hCA II” value in assay [1] (hCA IX over hCA II) is reported as 10 times.

As to `Cc1cc(C(=O)Nc2nnc(S(N)(=O)=O)s2)ccc1N` [Compound 12g, 4-Amino-3-methyl-N-(5-sulfamoyl-1,3,4-thiadiazol-2-yl)benzamide], the IC50 in assay [2] came to 120 ± 14.8 nM; in assay [1] it was 43.8 ± 6.6 nM.

For `COc1cc(C(=O)Nc2nnc(S(N)(=O)=O)s2)ccc1N` [Compound 12h, 4-Amino-3-methoxy-N-(5-sulfamoyl-1,3,4-thiadiazol-2-yl)benzamide], the figures for the IC50 in assay [2] and in assay [1] were 147 ± 15.3 nM and 36.4 ± 8.3 nM, respectively.

In the case of `NS(=O)(=O)c1nnc(NC(=O)c2ccc(NC(=O)CCCC(=O)N[C@@H]3O[C@H](CO)[C@@H](O)[C@H](O)[C@H]3O)c(F)c2)s1` [Compound 14c, N^1-(2-Fluoro-4-((5-sulfamoyl-1,3,4-thiadiazol-2-yl)carbamoyl)phenyl)-N^5-((2R,3R,4S,5S,6R)-3,4,5-trihydroxy-6-(hydroxymethyl)tetrahydro-2H-pyran-2-yl)glutaramide], the IC50 in assay [2] turned out to be 215 ± 9.5 nM; in assay [1], 76.6 ± 6.2 nM; in assay [3], 81.8 ± 11.1 nM.

As to `NS(=O)(=O)c1nnc(NC(=O)c2ccc(NC(=O)CCCC(=O)N[C@@H]3O[C@H](CO)[C@@H](O)[C@H](O)[C@H]3O)c(Cl)c2)s1` [Compound 14d, N^1-(2-Chloro-4-((5-sulfamoyl-1,3,4-thiadiazol-2-yl)carbamoyl)phenyl)-N^5-((2R,3R,4S,5S,6R)-3,4,5-trihydroxy-6-(hydroxymethyl)tetrahydro-2H-pyran-2-yl)glutaramide], the IC50 in assay [2] turned out to be 765 ± 15.1 nM; in assay [1], 280 ± 10.2 nM.

Turning to `NS(=O)(=O)c1nnc(NC(=O)c2ccc(NC(=O)CCCC(=O)N[C@@H]3O[C@H](CO)[C@@H](O)[C@H](O)[C@H]3O)c(Br)c2)s1` [Compound 14e, N^1-(2-Bromo-4-((5-sulfamoyl-1,3,4-thiadiazol-2-yl)carbamoyl)phenyl)-N^5-((2R,3R,4S,5S,6R)-3,4,5-trihydroxy-6-(hydroxymethyl)tetrahydro-2H-pyran-2-yl)glutaramide], the IC50 in assay [2] is 886 ± 13.7 nM; in assay [1], 1082 ± 8.5 nM.

On to `NS(=O)(=O)c1nnc(NC(=O)c2ccc(NC(=O)CCCC(=O)N[C@@H]3O[C@H](CO)[C@@H](O)[C@H](O)[C@H]3O)c([N+](=O)[O-])c2)s1` [Compound 14f, N^1-(2-Nitro-4-((5-sulfamoyl-1,3,4-thiadiazol-2-yl)carbamoyl)phenyl)-N^5-((2R,3R,4S,5S,6R)-3,4,5-trihydroxy-6-(hydroxymethyl)tetrahydro-2H-pyran-2-yl)glutaramide], for which the IC50 in assay [2] was 995 ± 10.6 nM; in assay [1] it was 117 ± 6.9 nM.

With `Cc1cc(C(=O)Nc2nnc(S(N)(=O)=O)s2)ccc1NC(=O)CCCC(=O)N[C@@H]1O[C@H](CO)[C@@H](O)[C@H](O)[C@H]1O` [Compound 14g, N^1-(2-Methyl-4-((5-sulfamoyl-1,3,4-thiadiazol-2-yl)carbamoyl)phenyl)-N^5-((2R,3R,4S,5S,6R)-3,4,5-trihydroxy-6-(hydroxymethyl)tetrahydro-2H-pyran-2-yl)glutaramide], the IC50 was 165 ± 9.1 nM in assay [2], 53.4 ± 6.2 nM in assay [1] and 70.5 ± 10.9 nM in assay [3].

Take `NS(=O)(=O)c1nnc(NC(=O)c2ccc(NC(=O)CCC(=O)NC3OC(CO)C(O)C(O)C3O)cc2)s1` [Compound 14i, N^1-(4-((5-Sulfamoyl-1,3,4-thiadiazol-2-yl)carbamoyl)phenyl)-N^4-((2R,3R,4S,5S,6R)-3,4,5-trihydroxy-6-(hydroxymethyl)tetrahydro-2H-pyran-2-yl)succinimide]: the IC50 in assay [2] was determined as 197 ± 7.9 nM; in assay [1], 54.9 ± 6.2 nM; in assay [3], 52.8 ± 11.4 nM.

In the case of `NS(=O)(=O)c1nnc(NC(=O)c2cccc(NC(=O)CCC(=O)N[C@@H]3O[C@H](CO)[C@@H](O)[C@H](O)[C@H]3O)c2)s1` [Compound 14j, N^1-(3-((5-Sulfamoyl-1,3,4-thiadiazol-2-yl)carbamoyl)phenyl)-N^4-((2R,3R,4S,5S,6R)-3,4,5-trihydroxy-6-(hydroxymethyl)tetrahydro-2H-pyran-2-yl)succinimide], the IC50 in assay [2] was 260 ± 12.6 nM; in assay [1], 69.4 ± 5.7 nM; in assay [3], 40.6 ± 6.9 nM.

As for `NS(=O)(=O)c1nnc(NC(=O)c2ccc(NC(=O)CCC(=O)N[C@@H]3O[C@H](CO)[C@@H](O)[C@H](O)[C@H]3O)c(F)c2)s1` [Compound 14k, N^1-(2-Fluoro-4-((5-sulfamoyl-1,3,4-thiadiazol-2-yl)carbamoyl)phenyl)-N^4-((2R,3R,4S,5S,6R)-3,4,5-trihydroxy-6-(hydroxymethyl)tetrahydro-2H-pyran-2-yl)succinimide], the results for the IC50 in assay [2] and in assay [1] were 474 ± 7.1 nM and 141 ± 8.1 nM, respectively.

For `NS(=O)(=O)c1nnc(NC(=O)c2ccc(NC(=O)CCC(=O)N[C@@H]3O[C@H](CO)[C@@H](O)[C@H](O)[C@H]3O)c(Cl)c2)s1` [Compound 14l, N^1-(2-Chloro-4-((5-sulfamoyl-1,3,4-thiadiazol-2-yl)carbamoyl)phenyl)-N^4-((2R,3R,4S,5S,6R)-3,4,5-trihydroxy-6-(hydroxymethyl)tetrahydro-2H-pyran-2-yl)succinimide], the IC50 in assay [2] was 612 ± 8.5 nM; in assay [1], 256 ± 7.9 nM.

Regarding `NS(=O)(=O)c1nnc(NC(=O)c2ccc(NC(=O)CCC(=O)N[C@@H]3O[C@H](CO)[C@@H](O)[C@H](O)[C@H]3O)c(Br)c2)s1` [Compound 14m, N^1-(2-Bromo-4-((5-sulfamoyl-1,3,4-thiadiazol-2-yl)carbamoyl)phenyl)-N^4-((2R,3R,4S,5S,6R)-3,4,5-trihydroxy-6-(hydroxymethyl)tetrahydro-2H-pyran-2-yl)succinimide], the IC50 in assay [2] turned out to be 824 ± 11.1 nM; in assay [1], 865 ± 10.7 nM.

For the compound `NS(=O)(=O)c1nnc(NC(=O)c2ccc(NC(=O)CCC(=O)N[C@@H]3O[C@H](CO)[C@@H](O)[C@H](O)[C@H]3O)c([N+](=O)[O-])c2)s1` [Compound 14n, N^1-(2-Nitro-4-((5-sulfamoyl-1,3,4-thiadiazol-2-yl)carbamoyl)phenyl)-N^4-((2R,3R,4S,5S,6R)-3,4,5-trihydroxy-6-(hydroxymethyl)tetrahydro-2H-pyran-2-yl)succinimide], the IC50 in assay [2] stood at 1400 ± 24.6 nM; in assay [1], 291 ± 10.9 nM.

Consider `Cc1cc(C(=O)Nc2nnc(S(N)(=O)=O)s2)ccc1NC(=O)CCC(=O)N[C@@H]1O[C@H](CO)[C@@H](O)[C@H](O)[C@H]1O` [Compound 14o, N^1-(2-Methy-4-((5-sulfamoyl-1,3,4-thiadiazol-2-yl)carbamoyl)phenyl)-N^4-((2R,3R,4S,5S,6R)-3,4,5-trihydroxy-6-(hydroxymethyl)tetrahydro-2H-pyran-2-yl)succinimide], for which the IC50 was found to be 270 ± 13.9 nM in assay [2] and 135 ± 7 nM in assay [1].

Take `CC(=O)O[C@H]1C(=O)[C@@]2(C)[C@H]([C@H](OC(=O)c3ccccc3)[C@]3(O)C[C@H](OC(=O)[C@H](O)[C@@H](NC(=O)c4ccccc4)c4ccccc4)C(C)=C1C3(C)C)[C@]1(OC(C)=O)CO[C@@H]1C[C@@H]2O` [Taxol, reference compound]: the figures for the IC50 in assay [4] and in assay [5] were 0.111 µg/mL (≈ 0.13 µM) and 0.099 µg/mL (≈ 0.116 µM), respectively.
